According to patent US11344635B2, “Compounds for use as iron (III) MRI contrast agents containing anionic pendents and ancillary groups” (The Research Foundation for The State University of New York, priority 2018, dated 2022):
One block for each compound: values may come before it.

Columns and labels:
[1] = Phantom (in vitro) MR imaging: T1 and T2 relaxivity; type: physicochemical; conditions: for r1 / r1 with HSA: 37° C.
Description: Preparation of Samples for Phantom MR Imaging: Samples for phantom imaging experiments contained 50-500 μM complex, 20 mM HEPES and 100 mM NaCl. For samples containing Human Serum Albumin (HSA), 35 mg of HSA was added to these solutions. The pH of all solutions was adjusted to 7.0.
Phantom (in vitro) imaging at 4.7 T. MRI acquisitions were performed using a General Electric 4.7 T/33 cm horizontal bore magnet (GE NMR instruments, Fremont, Calif.) incorporating AVANCE digital electronics (Bruker BioSpec platform with ParaVision v 3.0.2 acquisition software, Bruker Medical, Billerica, Mass.). […] T1 relaxation rates (r1) were acquired utilizing a saturation recovery, spin-echo (SE) sequence with a fixed echo time (TE), 10 ms and repetition times (TR) ranging from 75 to 8000 ms. Signal intensities at each repetition time were sampled by taking the mean intensity within regions of interest (ROI's) using commercially available image processing software (Analyze 7.0, AnalyzeDirect, Overland, Kans.), and r1 and SMAX were calculated by nonlinear fitting of the equation using Matlab's Curve Fitting Toolbox (Matlab 7.0, MathWorks Inc., Natick, Mass.). The T1 relaxivity for each complex was then determined by obtaining the slope of the compound's molar concentration vs r1 via linear regression fitting of the data. Similarly, T2 relaxation rates (R2) were acquired using a multiecho, Carr-Purcell-Meiboom Gill (CPMG) SE sequence with a fixed TR of 2500 ms and TE times ranging from 15 to 300 ms, NEX) 2. R2 and SMAX were calculated as described above using the equation As before, the T2 relaxivity was determined by obtaining the slope of concentration vs r2 via linear regression fitting of the data.
Relaxivity values for Fe(TASO) with and without HSA measured at 4.7 T and 9.4 T, pH 7.2 and 37° C. compared to Gd(DTPA).

[2] = Benzoate oxidation in the presence of peroxide and ascorbate (ROS assay); conditions: 50 μM complex, 50 μM H2O2, 50 μM ascorbate, pH 7.2
Description: Benzoate oxidation with 50 μM complex, 50 μM H2O2 and 50 μM ascorbate at pH 7.2. [Fe(EDTA)]^− oxidation is set at 100%.
It is desirable that the Fe(III) complex remain in the trivalent oxidation state and not be reduced by peroxide, superoxide, ascorbate or by glutathione at concentrations present in the extracellular medium of cells such as, for example, mammalian cells (e.g., human cells). Normally, a redox potential more negative than zero mV (<0 mV) versus NHE is sufficient. If the complex were to be reduced to Fe(II) and the Fe(II) complex and the complex has a positive redox potential versus NHE, reactive oxygen species may be produced. For example, [Fe(EDTA)]− has a redox potential of approximately 300 mV and produces ROS as shown by the assay in FIG. 7.

[3] = versus NHE; cited from earlier work
[4] = Log P octanol/water partition coefficient; type: physicochemical
[5] = Effective magnetic moment by Evans method; type: physicochemical; conditions: aqueous solution
Description: Magnetic moments. Samples for studies of magnetic moment by using the Evans method were prepared using a coaxial NMR insert which contained the diamagnetic standard of 5% t-butanol in D2O. The outer 5 mm NMR tube contained 5 mM paramagnetic complex with fixed concentrations; 4 mM, 8 mM, 40 mM, and 70 mM in presence of 5% t-butanol. The effective magnetic moment (μeff, BM) was calculated by using a modified Evans method for small molecules at 298 K (T).

[6] = 4.7 T, pH 7.2, 37° C., without HSA
[7] = neutral pH, HEPES buffer, 4.7 Tesla MRI scanner
[8] = with human serum albumin, neutral pH, HEPES buffer, 4.7 Tesla

SMILES: CNC[C@H](O)[C@@H](O)[C@H](O)[C@H](O)CO.CNC[C@H](O)[C@@H](O)[C@H](O)[C@H](O)CO.O=C([O-])CN(CCN(CC(=O)[O-])CC(=O)O)CCN(CC(=O)[O-])CC(=O)O.[Gd+3] [Gd(DTPA), gadopentetate dimeglumine, reference compound]
r1 4.7 T [1, 6]: 3.1 ± 0.31 mM⁻¹ s⁻¹
r2 4.7 T [1, 6]: 3.9 ± 0.39 mM⁻¹ s⁻¹
r1 in HSA 4.7 T ([1]; in HSA, 4.7 T, pH 7.2, 37° C.): 3.2 ± 0.32 mM⁻¹ s⁻¹
r2 in HSA 4.7 T ([1]; in HSA, 4.7 T, pH 7.2, 37° C.): 4.0 ± 0.40 mM⁻¹ s⁻¹

Benzoate oxidation / ROS production (in words) [2]: produces ROS
Benzoate oxidation relative to [Fe(EDTA)]− ([2]; reference set at 100%): 100%
SMILES: O=C([O-])CN(CCN(CC(=O)[O-])CC(=O)[O-])CC(=O)[O-].[Fe+3] [[Fe(EDTA)]^−]
redox potential [3]: approximately 300 mV

SMILES: O=P([O-])(CN1CCN(CP(=O)([O-])c2ccccc2)CCN(CP(=O)([O-])c2ccccc2)CC1)c1ccccc1.[Fe+3] [Fe(TRAP-Ph)]
r1 [1, 7]: 2.9 mM⁻¹ s⁻¹
r1 with HSA [1, 8]: 3.5 mM⁻¹ s⁻¹

Log P octanol/water [4]: −2.02±0.30
effective magnetic moment μeff [5]: 5.85±0.14 BM
SMILES: O=P([O-])(O)CN1CCN(CP(=O)([O-])O)CCN(CP(=O)([O-])O)CC1.[Fe+3] [Fe(NOTP)]
r1 ([1]; FIG. 11, 4.7 Tesla): 0.66 ± 0.01 mM⁻¹ s⁻¹
r1 with HSA ([1]; FIG. 11, with HSA, 4.7 Tesla): 1.04 ± 0.06 mM⁻¹ s⁻¹
r1 [1, 7]: 0.66 mM⁻¹ s⁻¹
r1 with HSA [1, 8]: 1.0 mM⁻¹ s⁻¹
